Measured values published in patent US9464056B2, “Fungicidal 4-methylanilino pyrazoles” (E. I. DU PONT DE NEMOURS AND COMPANY, priority 2012, dated 2016).

Legend:
[1] = tested on: Puccinia recondita f. sp. tritici; assay: Test E2: preventive spray on wheat seedlings, Puccinia recondita f. sp. tritici (wheat leaf rust), visual disease rating; type: in vivo; settings: topical, 192 h, 100 = 100% disease control, 0 = no disease control relative to controls
Text: (§1) General protocol for preparing test suspensions for Tests A-H: the test compounds were first dissolved in acetone in an amount equal to 3% of the final volume and then suspended at the desired concentration (in ppm) in acetone and purified water (50/50 mix by volume) containing 250 ppm of the surfactant Trem® 014 (polyhydric alcohol esters). The resulting test suspensions were then used in Tests A-F. Spraying a 40 ppm test suspension to the point of run-off on the test plants was the equivalent of a rate of 160 g/ha. Unless otherwise indicated, the rating values indicate a 40 ppm test suspension was used. The test suspension was sprayed to the point of run-off on wheat seedlings. The following day the seedlings were inoculated with a spore suspension of Puccinia recondita f. sp. tritici (the causal agent of wheat leaf rust) and incubated in a saturated atmosphere at 20° C. for 24 h, and then moved to a growth chamber at 20° C. for 7 days, after which time visual disease ratings were made. Results for Tests A-F are given in Table A. In the Table, a rating of 100 indicates 100% disease control and a rating of 0 indicates no disease control (relative to the controls). A dash (-) indicates no test results.

[2] = tested on: Septoria nodorum; assay: Test C: preventive spray on wheat seedlings, Septoria nodorum (Septoria glume blotch), visual disease rating; type: in vivo; settings: Parastagonospora nodorum, topical, 264 h, 100 = 100% disease control, 0 = no disease control relative to controls
Text: as §1, with “Septoria nodorum” for “Puccinia recondita f. sp. tritici”, “Septoria glume blotch)” for “wheat leaf rust)”, “48” for “24”, “9” for “7”

[3] = tested on: Blumeria graminis f. sp. tritici; assay: Test F: preventive spray on wheat seedlings, Blumeria graminis f. sp. tritici (wheat powdery mildew), visual disease rating; type: in vivo; settings: topical, 192 h, 100 = 100% disease control, 0 = no disease control relative to controls
Text: as §1, with “spore dust” for “spore suspension”, “of Blumeria graminis” for “of Puccinia recondita”, “tritici (also known as Erysiphe graminis f. sp. tritici, the” for “tritici (the”, “wheat powdery mildew)” for “wheat leaf rust)”, “in” for “in a saturated atmosphere at 20° C. for 24 h, and then moved to”, “for 8” for “for 7”

[4] = tested on: Septoria tritici; assay: Test D: preventive spray on wheat seedlings, Septoria tritici (wheat leaf blotch), visual disease rating; type: in vivo; settings: Zymoseptoria tritici, topical, 504 h, 100 = 100% disease control, 0 = no disease control relative to controls
Text: (§2) General protocol for preparing test suspensions for Tests A-H: the test compounds were first dissolved in acetone in an amount equal to 3% of the final volume and then suspended at the desired concentration (in ppm) in acetone and purified water (50/50 mix by volume) containing 250 ppm of the surfactant Trem® 014 (polyhydric alcohol esters). The resulting test suspensions were then used in Tests A-F. Spraying a 40 ppm test suspension to the point of run-off on the test plants was the equivalent of a rate of 160 g/ha. Unless otherwise indicated, the rating values indicate a 40 ppm test suspension was used. The test suspension was sprayed to the point of run-off on wheat seedlings. The following day the seedlings were inoculated with a spore suspension of Septoria tritici (the causal agent of wheat leaf blotch) and incubated in saturated atmosphere at 24° C. for 48 h, and then moved to a growth chamber at 20° C. for 19 days, after which time visual disease ratings were made. Results for Tests A-F are given in Table A. In the Table, a rating of 100 indicates 100% disease control and a rating of 0 indicates no disease control (relative to the controls). A dash (-) indicates no test results.

[5] = tested on: Botrytis cinerea; assay: Test A: preventive spray on tomato seedlings, Botrytis cinerea (tomato Botrytis), visual disease rating; type: in vivo; settings: 100 = 100% disease control, 0 = no disease control relative to controls
Text: as §2, with “tomato” for “wheat”, “Botrytis cinerea” for “Septoria tritici”, “tomato Botrytis)” for “wheat leaf blotch)”, “20°” for “24°”, “27°” for “20°”, “3” for “19”

melting point: 143 to 145 °C
SMILES: Cc1cc(F)c(Nc2c(-c3ccc(F)cc3Br)c(C)nn2C)c(Br)c1 [Compound 7, N-(2-bromo-6-fluoro-4-methylphenyl)-4-(2-bromo-4-fluorophenyl)-1,3-dimethyl-1H-pyrazol-5-amine]
pest or weed control at 40 µg/mL [1]: 100%
pest or weed control at 40 µg/mL [2]: 99%
pest or weed control at 40 µg/mL [3]: 100%
pest or weed control at 40 µg/mL [4]: 100%
pest or weed control at 40 µg/mL [5]: 100%
